Experimental data from patent US11583532B2, “Triazolopyrimidine derivatives for use as ghrelin o-acyl transferase (GOAT) inhibitors” (Boehringer Ingelheim International GmbH, priority 2018, dated 2023).

biological target: human GOAT (ghrelin O-acyl transferase) (Homo sapiens (Human), UniProt Q96T53); assay: Determination of hGOAT activity in HEK293 cells after incubation with test compound (acyl-ghrelin ELISA); assay type: cell-based; settings: HEK293 cells stably transfected with preproghrelin and human GOAT cDNA; octanoate-BSA 100 μM; 5 hours incubation; acyl-ghrelin in medium by ELISA; 8 compound concentrations
Sequence (Q96T53 whole entry): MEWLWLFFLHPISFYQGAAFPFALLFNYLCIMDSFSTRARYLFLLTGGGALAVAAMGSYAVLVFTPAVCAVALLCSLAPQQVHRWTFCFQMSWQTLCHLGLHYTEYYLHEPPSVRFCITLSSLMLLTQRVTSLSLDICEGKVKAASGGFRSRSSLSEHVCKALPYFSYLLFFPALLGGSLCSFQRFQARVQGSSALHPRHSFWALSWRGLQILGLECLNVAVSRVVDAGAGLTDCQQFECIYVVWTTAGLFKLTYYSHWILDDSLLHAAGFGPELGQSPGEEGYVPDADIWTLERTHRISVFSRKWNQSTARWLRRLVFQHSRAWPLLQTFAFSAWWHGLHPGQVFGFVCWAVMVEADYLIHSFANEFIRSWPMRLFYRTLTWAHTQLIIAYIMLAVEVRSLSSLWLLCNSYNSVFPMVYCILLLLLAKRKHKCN
Procedure: Determination of hGOAT Activity in HEK293 Cells after incubation with test compound
HEK293 cells stably transfected with two expression vectors, one coding for preproghrelin cDNA and a second for the expression of human GOATcDNA are used as a cellular model. After feeding the cells with octanoic acid for 5 hours, acyl-ghrelin is measured in cell culture medium by an ELISA procedure.
Cellline: Hek293 hGOAT/PPGhrl Clone #1B8Sodium octanoate, Sigma, Cat.-No. C5038
BSA: Sigma, Cat.-No. A8806
BD Poly-D-Lysin 384-well Plates, black-clear polystyrene BD Bioscience Cat.-No. […] ELISA human acylated Ghrelin Kit purchased from Bertin Pharman (detailed composition of buffers e.g. wash-puffer, ELISA buffer not known)
All further reagents used were of highest analytical grade available.
Cells are plated with a density of 5000 cells/well in 384-well poly-D-lysin plates and incubated for 1 day at 37° C., 5% CO2 in DMEM medium, 10% FCS, 1×NEAA, Puromycin (0.5 μg/ml) and G418 (1 mg/ml). Then the medium is changed to a identical medium without FCS and containing Octanoate-BSA (final concentration 100 μM each) and compound in DMSO (final DMSO concentration 0.3%). After incubation for 5 hours acylghrelin in the medium is measured by ELISA.
The medium sample is diluted 1:25 in Elisa buffer, a 25 μl aliquot is transferred to a 384-well ELISA plate previously washed 4 times with 100 μL wash buffer, and 25 μl tracer-solution is added. After incubation overnight (˜20 h) at 4° C. temperature the plate is washed 4 times with 100 μl wash-buffer per well. Finally 50 μl Ellman's reagent is added to each well and the plate is incubated in the dark for 20 minutes. The absorbance is measured at 405 nm in an Envision multilabel reader and the amount of acylated ghrelin is calculated according to a acylated ghrelin standard curve provided in the same plate.
The analysis of the data is performed by calculation of the percentage of acyl-ghrelin produced in the presence of test compound compared to the amount of acyl-ghrelin produced in the vehicle control samples. An inhibitor of the GOAT enzyme will give values between 100% CTL (no inhibition) and 0% CTL (complete inhibition).
IC50 values are calculated with Assay Explorer or other suited software based on curve fitting of results of 8 different compound concentrations.

SMILES | IC50
Cc1nc2ncnn2c(N)c1Cc1ccc(Br)c(N2CCC(C(F)(F)F)C2)n1 (centres unmarked) [Example 23.4] | 0.7 nM
Cc1nc2ncnn2c(N)c1Cc1ccc(Br)c(N2CCC(O)(C(F)(F)F)C2)n1 (centres unmarked) [Example 23.5] | 0.83 nM
Cc1nc2ncnn2c(N)c1Cc1ccc(Br)c(N2Cc3ccc(F)cc3C2)n1 [Example 23.6] | 0.86 nM
Cc1nc2ncnn2c(N)c1Cc1ccc(Br)c(N2CC(C(F)(F)F)C2)n1 [Example 23.7] | 7.7 nM
Cc1nc2ncnn2c(N)c1Cc1ccc(C(F)(F)F)c(C#N)n1 [Example 24.1, 6-({7-Amino-5-methyl-[1,2,4]triazolo[1,5-a]pyrimidin-6-yl}methyl)-3-(trifluoromethyl)pyridine-2-carbonitrile] | 4.6 nM
COc1cc(C(F)(F)F)ccc1Cc1c(Cl)nc2ncnn2c1N [Example 25.1, 5-Chloro-6-{[2-methoxy-4-(trifluoromethyl)phenyl]methyl}-[1,2,4]triazolo[1,5-a]pyrimidin-7-amine] | 0.83 nM
COc1cc(Cc2c(Cl)nc3ncnn3c2N)ccc1C(F)(F)F [Example 25.2] | 1 nM
Nc1c(Cc2ccc(C(F)(F)F)cc2)c(Cl)nc2ncnn12 [Example 25.3] | 5.7 nM
